Values quoted from earlier work in US20210113501A1, “METHOD OF ADMINISTERING BETA-HYDROXY-BETA-METHYLBUTYRATE (HMB)” (Metabolic Technologies, Inc., priority 2009, published 2021).

Legend:
C2C12 myotubes = settings: cited from earlier work
[1] = after HMB is fed; cited from earlier work

Compound | phosphorylation of S6K1Thr389 (C2C12 myotubes) | phosphorylation of 4EBP1Thr65/70 (C2C12 myotubes) | phosphorylation of AKTSer473 (C2C12 myotubes) | AKT phosphorylation (C2C12 myotubes; incubation with rapamycin) | loss of HMB to urine [1]
CC(C)C[C@H](N)C(=O)O [leucine] | +17% | – | – | – | –
CC(C)(O)CC(=O)O [HMB, β-Hydroxy-β-methylbutyrate] | +50% | +51% | +129% | +188% | 20-50%
